Laboratory results: paper PMC9459017, “Pharmacokinetic and pharmacodynamic similarity evaluation between an insulin glargine biosimilar product and Lantus® in healthy subjects: Pharmacokinetic parameters of both parent insulin glargine and M1 were used as endpoints” (Frontiers in Pharmacology, 2022)

Assays:
[1] = system: healthy volunteers; experiment: 24 h euglycemic clamp, glucose infusion rate (pharmacodynamics); type: in vivo, human; conditions: single 0.4 U/kg s.c., N = 38; for AUCGIR(0–24 h), geometric mean / Time to GIRmax / AUCGIR(0–12 h), geometric mean / AUCGIR(12–24 h), geometric mean / GIRmax, geometric mean: healthy volunteers; for AUCGIR(0–24 h), geometric mean: 24 h euglycemic clamp 0.3 mmol/L below fasting glucose; for AUCGIR(0–24 h), geometric mean / AUCGIR(0–12 h), geometric mean / AUCGIR(12–24 h), geometric mean / GIRmax, geometric mean: raw GIR not smoothed; for Time to GIRmax / AUCGIR(0–12 h), geometric mean / AUCGIR(12–24 h), geometric mean / GIRmax, geometric mean: 24 h euglycemic clamp; for Time to GIRmax: median (range); for AUCGIR(0–12 h), intra-subject variability / AUCGIR(0–24 h), intra-subject variability / AUCGIR(12–24 h), intra-subject variability / GIRmax, intra-subject variability: replicate crossover
Description: This PK/PD comparative study was a randomized, double-blind, single-dose, two-treatment, four-period, replicate crossover, euglycemic clamp study. Subjects were randomly assigned to one of two dosing sequences and received 0.4 U/kg reference drug on two occasions and 0.4 U/kg test drug on two occasions. The dosing nurses were not blind to the treatment allocation, whereas the subjects and the clamping operators (who adjusted the glucose infusion rate) were blinded. Subjects were admitted to the clinical research unit on the night before each period. On day 1 of each period, all doses of test and reference drug were administered by subcutaneous injection, and then, subjects underwent a euglycemic clamp procedure until 24 h post-dose. There was a washout period of 10–14 days between study periods. For each subject, the 24 h euglycemic clamp procedure aimed to maintain the clamp value at 0.3 mmol/L below the subject’s mean fasting glucose level in each period. Each subject began fasting from 20:00 on the day prior to dosing in each period and continued fasting during the clamp study. Body weight and vital signs were measured after the bladder was emptied, and the clamp study was performed after resting for at least 30 min. One upper limb was cannulated for the infusion of glucose (20% dextrose solution in water). The contralateral upper limb was cannulated for PK blood sample collection and blood glucose concentration measurement. Blood glucose level was measured by using an automatic blood glucose analyzer every 20 min from 0 to 3.0 h, every 10 min from 3.0 to 12.0 h, every 15 min from 12.0 to 16.0 h, every 30 min from 16.0 to 21.0 h, and every 15 min from 21.0 to 24.0 h. After each glucose measurement, the glucose infusion rate (GIR) was manually adjusted by the operator based on the experience of the change rate of blood glucose to maintain the blood glucose concentration within ±10% of the clamp target. During the entire procedure, subjects should stay awake, decumbent, or semi-decumbent as much as possible and relieve themselves in time with the help of medical staff. PD parameters were calculated with WinNonlin Version 8.2 using the trapezoidal rule. Raw GIR profiles were not smoothed before calculation of PD parameters. Area under the glucose infusion rate–time curve (AUCGIR(0–24 h)) and peak of glucose infusion rate (GIRmax) were measured as primary endpoints. Partial area under the glucose infusion rate–time curve (AUCGIR(0–12 h) and AUCGIR(12–24 h)) was the secondary PD parameter. Another meaningful PD endpoint was time to GIRmax. The primary and secondary PD parameters, AUCGIR(0–24 h), GIRmax, AUCGIR(0–12 h), and AUCGIR(12–24 h), were log transformed prior to analysis. The same linear mixed-effects model as PK comparison was used for the PD comparison. For each PD parameter, the difference in geometric means along with the 90% CIs was back transformed to produce the ratio of geometric means and the CI comparing the test drug to reference drug. PD similarity was to be concluded if the […] for both primary and secondary PD parameters were contained within the interval of 80.00%–125.00%. Intra-subject and inter-subject variability were reported for each primary and secondary PD parameters.

[2] = system: healthy subjects; experiment: Safety assessment in healthy subjects; conditions: single 0.4 U/kg s.c. doses, healthy male subjects
Experimental: Prior to dose and at various time points post-dose and post-study, assessments of safety and tolerability were conducted by monitoring adverse events (AEs), vital signs, physical examinations, laboratory tests (hematology, blood biochemistry, urinalysis, and coagulation function), and 12-lead ECG.

[3] = design: species or system human; conditions: in vivo, sc; for Tmax of the parent insulin glargine: human
Description: This PK/PD comparative study was a randomized, double-blind, single-dose, two-treatment, four-period, replicate crossover, euglycemic clamp study. Subjects were randomly assigned to one of two dosing sequences and received 0.4 U/kg reference drug on two occasions and 0.4 U/kg test drug on two occasions. The dosing nurses were not blind to the treatment allocation, whereas the subjects and the clamping operators (who adjusted the glucose infusion rate) were blinded. Subjects were admitted to the clinical research unit on the night before each period. On day 1 of each period, all doses of test and reference drug were administered by subcutaneous injection, and then, subjects underwent a euglycemic clamp procedure until 24 h post-dose. There was a washout period of 10–14 days between study periods. The test drug, manufactured by Wanbang Biopharmaceuticals, was supplied as a 100 U/ml solution in 3 ml cartridges. The reference drug was procured commercially as cartridges. The test drug or reference drug was administrated by subcutaneous injection using a pen about 5 cm from the left or right side of the umbilicus, as a 0.4 U/kg dose. In each period, serial blood samples for the quantification of insulin glargine, its metabolites (M1 and M2), and C-peptide were collected at 30 min prior to dosing and 0, 1, 3, 5, 6, 7, 8, 9, 10, 11, 12, 13, 14, 16, 18, 21, and 24 h after dose using vacuum tubes with an EDTA anticoagulant. Concentrations of insulin glargine and its metabolites (M1 and M2) in plasma were simultaneously quantified by an ultra-high-performance liquid chromatography tandem mass spectrometry (UHPLC-MS/MS) method developed and fully validated before the clinical sample analysis. […] Pharmacokinetic parameters were calculated with WinNonlin Version 8.2 (Pharsight Corporation, Mountain View, California, United States) using a non-compartmental analysis method. […] Time to reach Cmax (Tmax) was also calculated. […]

[4] = system: endogenous insulin; experiment: Plasma C-peptide reduction during clamp (suppression of endogenous insulin); type: in vivo, human; conditions: single 0.4 U/kg s.c., healthy volunteers, plasma C-peptide by ELISA during 24 h clamp, mean ± SD
Experimental: In each period, serial blood samples for the quantification of insulin glargine, its metabolites (M1 and M2), and C-peptide were collected at 30 min prior to dosing and 0, 1, 3, 5, 6, 7, 8, 9, 10, 11, 12, 13, 14, 16, 18, 21, and 24 h after dose using vacuum tubes with an EDTA anticoagulant.
C-peptide in plasma was quantified by a fully validated enzyme-linked immunosorbent assay (ELISA) method, of which the calibration range was 28.9–925 pmol/L.
C-peptide concentration was measured in parallel to insulin concentrations throughout the experiment to compare the extent and consistency of suppression of endogenous insulin between the two drugs.
The quality of the performance of the clamp study was estimated from two aspects. On one hand, the blood glucose level during the entire clamping process was evaluated by calculating the mean difference between the blood glucose concentration and the clamp target, mean square deviation, and coefficient of variation of the blood glucose concentrations. On the other hand, the plasma C-peptide concentration profiles and the ratio of C-peptide reduction were evaluated.

[5] = acidic pH; precipitates in the subcutaneous tissue after injection to form a depot; ref Levien et al., 2002; cited from earlier work
Description: Then, the drug is slowly released from the depot. […] These observed phenomena are consistent with those of a previous study ([Bolli et al., 2012]). Based on the comparison ...

[6] = Matrix stability of insulin glargine in whole blood and plasma; type: in vitro ADME; conditions: human whole blood and plasma; addressed by strict temperature control and EDTA anticoagulant during sample collection and pre-treatment
Description: The bioanalytical method applied in this study was with a relatively higher sensitivity of 75.0 pg/ml for the parent insulin glargine ([Bhatia et al., 2018]; [Crutchlow et al., 2018]). The instability of the insulin glargine in whole blood and plasma was addressed by strict temperature control and selection of EDTA anticoagulant during sample collection and pre-treatment. […] After subcutaneous injection, the concentrations of parent insulin glargine increased to a relatively high level within 3 h, and then, a relatively flat concentration–time profile lasting for at least 12 h post-dose was observed, which implied a prolonged absorption of insulin glargine.

[7] = system: healthy volunteers; experiment: 24 h euglycemic clamp, glucose infusion rate (pharmacodynamics); type: in vivo, human; conditions: single 0.4 U/kg s.c., linear mixed-effects model, N = 38

Row | Substance | AUCGIR(0–24 h), geometric mean [1] [mg/kg/min·h] | Time to GIRmax [1] | AUCGIR(0–12 h), geometric mean [1] [mg/kg/min·h] | AUCGIR(12–24 h), geometric mean [1] [mg/kg/min·h] | GIRmax, geometric mean [1] [mg/kg/min] | AUCGIR(0–12 h), intra-subject variability [1] [%] | AUCGIR(0–24 h), intra-subject variability [1] [%] | AUCGIR(12–24 h), intra-subject variability [1] [%] | GIRmax, intra-subject variability [1] [%] | Clinically significant changes in vital signs, physical examinations, laboratory tests or 12-lead ECG [2] | Safety profiles with regard to AEs [2] | Tmax of the parent insulin glargine [3] | Ratio of C-peptide reduction [4] | Solubility [5] | Duration of relatively flat concentration–time profile post-dose [3] | Stability in whole blood and plasma [6] | AUCGIR(0–12 h), ratio of geometric means test/reference [7] [%] | AUCGIR(0–24 h), ratio of geometric means test/reference [7] [%] | AUCGIR(12–24 h), ratio of geometric means test/reference [7] [%] | GIRmax, ratio of geometric means test/reference [7] [%]
1 | Lantus [Reference drug] | 34.4 | 11.8 (4, 19.0) | 13.45 | 21.19 | 2.54 | 39.0 | 28.3 | 20.2 | 25.5 | no changes | comparable | 3 (1,16) h | 57.5% ± 14.4 |  |  |  |  |  |  | 
2 | insulin glargine |  |  |  |  |  |  |  |  |  |  |  |  |  | soluble at an acidic pH | at least 12 h | instability |  |  |  | 
3 | recombinant insulin glargine [Test drug] | 36.3 | 12.3 (3.85, 21.5) | 13.52 | 22.45 | 2.66 | 70.7 | 36.4 | 27.3 | 26.5 |  |  | 8 (1,16) h | 56.5% ± 14.1 |  |  |  | 100.52 | 105.41 | 105.91 | 105.00
